Reference: patent publication US9802929B2, “Benzo five-membered nitrogen heterocyclic piperidine or piperazine derivatives and preparation methods and pharmaceutical compositions thereof” (Shenyang Haiwang Biotechnology Co., Ltd., priority 2012, dated 2017)

Columns and labels:
[1] = tested on: In Vitro Vascular Smooth Muscle of Rabbits; assay: Relaxant effect on in vitro rabbit vascular smooth muscle contraction induced by adrenaline (AD); conditions: for relaxant effect against AD contraction (in words): rabbit vascular smooth muscle, AD 10^−5 mol/L; for EC50: Oryctolagus cuniculus
From the text: Krebs-Henseleit (K—H) physiological solution: NaCl 6.92 (concentration units), KCl 0.35, MgSO4 0.29, KH2PO4 0.16, CaCl2 0.28, NaHCO3 2.1, glucose 2.0 (g/L), pH 7.2.
Preparation of compound II-1 to II-87 solutions: Weigh a certain quality compound samples and dilute to concentrations (10^−10˜10^−3 mol/L) with distilled water, standby.
(§1) Cut the chest open quickly after stunning, strip out the descending aorta, then after removing the surrounding connective tissue and adipose tissue (if performed serotonin receptor antagonist experiments, endothelial cells should be removed using a smooth stainless steel bars), cut the vessels into 3-5 mm vascular ring, then pass the steel hook through the blood vessel ring, with one end is fixed to the vent hook and the other end connected to the tension transducer, then place the specimens into bath tube containing 20 mL of nutrient solution, and record tension change by tension transducer. Maintain tube temperature at 37±0.5° C., and pass bubbles (95% O2+5% CO2) into the solution as a speed of 1-2 bubbles/minute. Place an initial load of 1.5 g on the rings, and change nutrient every 20 minutes, then balance for 2 hours and start test after baseline readings are stabilized.
After tension readings are stabilized, record a certain length of tension curve, and add spasmogens agent AD (10^−5 mol/L) to induce contraction; if a maximum contract is achieved, wash the specimens thoroughly, and change K—H solution every 20 minutes, and then balance for 60 minutes; after baseline readings are stabilized, induce contract with spasmogens agent again. When the maximum contract in the later induction is consistent with the former induction, add compound II-1 to II-34 solutions (1×10^−10 to 1×10^−3 mol/L), II-35 to II-87 solutions (1×10^−8-1×10^−3 mol/L), and record the curves. Draw a dose-response curve using maximum relaxation response as 100%, relaxation percentage as ordinate and negative logarithms of the each concentration as abscissa.

α1 receptors = assay: Antagonism of α receptor agonist (noradrenaline / phenylephrine) cumulative contraction of rabbit aorta, pA2; conditions: for PA2 value against NA contraction: noradrenaline (NA) cumulative contraction; for PA2 value against Phenylephrine contraction: Phenylephrine cumulative contraction
From the text: as §1
After the tension is stabilized, record a certain length of the curve, and add NA (10^−8-10^−4 mol/L) to the tube until a maximum response is achieved, and then record the curve. Then wash the specimen with K—H solution repeatedly, balance for 1 h, add compound II-36 (3×10^−7 mol/L), and 20 minutes later, add NA following a same procedure. Mark NA contraction as ordinate using maximum response as 100% base. […] The larger the PA2 value, the stronger the antagonist effect. It is calculated based on the values of the attached figures by software.
After the tension is stabilized, record a certain length of the curve, and add NA (10^−8-10^−4 mol/L) to the tube until a maximum response is achieved, and then record the curve. Then wash the specimens repeatedly with K—H solution, and refresh K—H solution every 20 minutes, and balance for 60 minutes to allow baseline values are stabilized; then add doxazosin (10^−7 mol/L) and after 15 minutes, add NA in the same way (10^−8-6×10^−5 mol/L). Mark NA contraction as ordinate using maximum response as 100% base. […] The PA2 value of positive control doxazosin is 7.52±0.04 against NA contraction of rabbit aorta.
(§2) After the tension is stabilized, record a certain length of the curve, and add NA (3×10^−7-6×10^−5 mol/L) to the tube until a maximum response is achieved, and then record the curve. Then wash the specimen with K—H solution repeatedly, balance for 1 h, add compound II-65 (3×10^−6 mol/L), and 20 minutes later, add NA (3×10^−7-3×10^−4 mol/L) following a same procedure. Mark NA contraction as ordinate using maximum response as 100% base. […] PA2 value of compound II-65 is 6.02±0.13 against NA contraction effect on rabbit aorta.
After above procedures, wash the specimen repeatedly with K—H solution, balance for 1 hour, add doxazosin (10^−7 mol/L), and add NA in the same way after 15 minutes. Mark NA contraction as ordinate using maximum response as 100% base. […] The PA2 value of positive control doxazosin is 7.16±0.24 against NA contraction of rabbit aorta.
as §2, with “Phenylephrine (10^−6-6×10^−3” for “NA (3×10^−7-6×10^−5”, “II-68 (3×10^−8” for “II-65 (3×10^−6”, “Phenylephrine” for “NA (3×10^−7-3×10^−4 mol/L)”, “Phenylephrine” for “NA”, “II-68” for “II-65”, “8.45±0.03” for “6.02±0.13”

[2] = relaxation of rabbit aortic rings contracted by AD (10^−5 mol/L)

| Compound | relaxant effect against AD contraction (in words) [1] | −logEC50 [1, 2] | PA2 value against NA contraction (α1 receptors) | EC50 [1, 2] [nM] | PA2 value against Phenylephrine contraction (α1 receptors) |
| --- | --- | --- | --- | --- | --- |
| FC(F)(F)c1cccc(N2CCN(CCCCn3nnc4ccccc43)CC2)c1 [Compound II-65, 1-(4-(4-(3-trifluoromethylphenyl)piperazin-1-yl)butyl)-1H-benzotriazole] | most significant relaxation effects | 6.19 ± 0.03 | 6.02±0.13 |  |  |
| FC(F)(F)c1cccc(N2CCN(CCCCn3cnc4ccccc43)CC2)c1 [Compound II-36, 1-(4-(4-(3-trifluoromethylphenyl)piperazin-1-yl)butyl)-1H-benzimidazole] | most significant relaxation effects |  | 7.37±0.08 | 1860 | 7.37±0.08 |
| c1ccc2c(c1)nnn2CCCCN1CCN(c2nsc3ccccc23)CC1 [Compound II-68, 3-(4-(4-(1H-benzotriazol-1-yl)butyl)piperazin-1-yl)benzisothiazole] | most significant relaxation effects |  |  | 8.51 | 8.45±0.03 |
